Measurements as given in patent publication US20250346903A1, “USE OF CONJUGATES OF MICRORNA AND CARDIAC TARGETING PEPTIDES FOR TREATING HEART FAILURE” (Georgetown University, priority 2022, published 2025).

Experiments:
PKC = PKC localization in HCMs (anti-PKCα staining); format: cell-based, human; settings: PMA 30 minutes
Excerpt: One potential mechanism of increased PLCβ1 expression is increased PKC activity. Thus, PKC localization was studied in treated HCMs. […] In HCMs treated with Ang2/PE, PKC was translocated to the plasma membrane (FIG. 12, Panel C).

Connexin 43 (CNX43) = test: CNX43 phosphorylation in HCMs (immunostaining); format: cell-based, human; settings: HCMs treated with PMA as a control
Procedure: Gap junction protein Connexin 43 (CNX43) is a known downstream target of PKC activity in cardiomyocytes. Thus, the effects of Ang2/PE and the CTP-microRNA106a on CNX43 in HCMs were studied. CNX43 is phosphorylated on serine 386 by PKCα. In untreated HCMs, gap junctions are prevalent (FIG. 14, Panel A), although only a few junctions are positive for phosphorylation of CNX43 (FIG. 14, Panel B). […] Phosphorylated CNX43 becomes widespread as HCMs are treated with Ang2/PE for 24 hours (FIG. 14, Panels E and F).

CaMKIIδ = test: Western blot of CaMKIIδ in PE/Ang2-treated HCMs; format: cell-based, human; settings: 200 nM miRNA transfected, within 72 hours
Procedure: (§1) Human cardiomyocytes (HCMs) were subjected to 200 nM phenylephrine (PE) and 10 nM angiotensin 2 (Ang2) to induce hypertrophy (initial stages of heart failure). The HCMs were treated with PE/Ang2 for 24, 48, 72, 96, or 144 hours. Using TransIT-X2 transfection reagent, 200 nM of each miRNA, or in combination, was introduced into PE/Ang2-treated HCMs, followed by analyses of hypertrophic morphology and heart failure gene/protein expression.
(§2) The CTP-miRNA106a conjugate suppressed translation of each protein, as confirmed in three separate experiments. A significant difference was observed between each of the CTP-miRNA106a conjugate-treated set and PE/Ang2-treated HCMs after 144 hours, and no significant difference was observed between each of the CTP-miRNA106a conjugate-treated HCMs and untreated HCMs.

HDAC4 [1] = test: Western blot of HDAC4 in PE/Ang2-treated HCMs; format: cell-based, human; settings: 200 nM miRNA transfected, within 72 hours
Procedure: as §1, §2

GRK2 = test: Western blot of GRK2 in PE/Ang2-treated HCMs; format: cell-based, human; settings: HCMs PE/Ang2 72 hours, then miRNA transfection
Procedure: The effects of miRNA17, miRNA20a, miRNA93, and miRNA106a on GRK2 signaling were assessed in HCMs treated with PE/Ang2. GRK2 has been identified to cause heart failure when mis-expressed.
The HCMs were subjected to 72 hours of PE/Ang2 treatment, and were subsequently treated with miRNA17, miRNA20a, miRNA93, or miRNA106a, or with the CTP-miRNA106a conjugate.

NfκB response element = NfκB response element luciferase assay in HCMs; format: cell-based, human; settings: Ang2/PE 24 hours, miRNAs transfected
Excerpt: Once in the nucleus NfκB binds to an NfκB response element to initiate transcription of downstream genes. To study how the CTP-miRNA106a conjugate can impact this effect, a plasmid containing an NfκB response element driving luciferase production (Promega, Inc) was used to generate HCMs expressing this NfκB luciferase response element. […] Moreover, the effect of miRNA106a on impacting Ang2/PE-induced luciferase expression in HCMs was compared to miRNA17, miRNA20a, and miRNA93.

3′UTR of PLCβ1 = test: PLCβ1 3′UTR luciferase assay in HEK293 cells; format: cell-based, human; settings: miRNA transfected 24 hours after plasmid
[2] = tested on: Human cardiomyocytes (HCMs); test: Hypertrophic morphology / cell size of PE/Ang2-treated HCMs; format: cell-based; settings: 200 nM transfection, 72 hours, no PE/Ang2
Procedure: as §1
(§3) HDAC4 localization was also rescued by the CTP-miRNA106a conjugate. HDAC4 is nuclear in untreated HCMs (see FIG. 4, Panel C), but CaMKIIδ phosphorylation promotes HDAC4 movement into the cytoplasm (see FIG. 4, Panel D) (Hohl et al., 2013).

CaMKIIδ 3′UTR = test: 3′UTR-luciferase assay, CaMKIIδ; format: cell-based, human; settings: miRNA106a with transfection reagent
HDAC4 3′UTR = test: 3′UTR-luciferase assay, HDAC4; format: cell-based, human; settings: miRNA106a with transfection reagent
GRK2 3′UTR = test: 3′UTR-luciferase assay, GRK2 (control); format: cell-based, human; settings: miRNA106a with transfection reagent; control without target sequence
HDAC4 [3] = test: HDAC4 localization by immunofluorescence in HCMs; format: cell-based, human; settings: HCMs PE/Ang2 72 hours, treatment 24 hours
Excerpt: as §3

HCMs = test: Mitochondrial membrane potential, JC-1 staining of HCMs; format: cell-based, human; settings: 200 nM miRNA106a transfected, 72 hours
Procedure: The effects of miRNA106a on mitochondrial health was assessed using the mitochondrial membrane potential (MMP) probe JC-1 staining. Healthy MMP is observed as JC-1 forms J-aggregates that fluoresce red (˜594 nm) while unhealthy MMP is recognized as green (˜488 nm) JC-1 monomers.

IL-1β = test: FACS of IL-1β expressing HCMs; format: cell-based, human; settings: miR106a (without CTP) transfected, then Ang2/PE
Excerpt: (§4) To identify if activation of the NfκB pathway by Ang2/PE led to expression of genes that augment hypertrophy and heart failure, HCMs treated with Ang2/PE or treated with both Ang2/PE and the CTP-miRNA106a conjugated were compared to untreated control HCMs by FACS. […] In summary, the CTP-miRNA106a conjugated suppressed NfκB signaling activated by Ang2/PE.

IL-6 = test: FACS of IL-6 expressing HCMs; format: cell-based, human; settings: miR106a transfected, then Ang2/PE
Excerpt: as §4

TNF-α = test: FACS of TNF-α expressing HCMs; format: cell-based, human; settings: miR106a transfected, then Ang2/PE
Excerpt: as §4

| Compound | PKC localization (PKC) | phosphorylated CNX43 (Connexin 43 (CNX43)) | CaMKIIδ overexpression induced by PE/Ang2 (CaMKIIδ) | HDAC4 overexpression induced by PE/Ang2 (HDAC4 [1]) | GRK2 expression (GRK2) | NfκB response element luciferase expression (NfκB response element) | decrease of luciferase activity (3′UTR of PLCβ1) [%] | growth in size (hypertrophy) in response to miRNA106a alone [2] | CaMKIIδ 3′UTR luciferase expression (CaMKIIδ 3′UTR) | HDAC4 3′UTR luciferase expression (HDAC4 3′UTR) | GRK2 3′UTR luciferase expression (GRK2 3′UTR) | HDAC4 localization (HDAC4 [3]) | JC-1 red:green ratio versus untreated (HCMs) | IL-1β expression (IL-1β) | IL-6 expression (IL-6) | TNF-α expression (TNF-α) |
| --- | --- | --- | --- | --- | --- | --- | --- | --- | --- | --- | --- | --- | --- | --- | --- | --- |
| CCCCCCCCCCCCCC(=O)O[C@@H]1[C@@H](C)[C@@]2(O)[C@@H](C=C(CO)C[C@]3(O)C(=O)C(C)=C[C@@H]23)[C@@H]2C(C)(C)[C@]12OC(C)=O [PMA, phorbal myristate acetate] | localized to the plasma membrane | the phosphorylation patterns are more robust | – | – | – | – | – | – | – | – | – | – | – | – | – | – |
| miRNA17: microRNA, RNA sequence CAAAGUGCUUACAGUGCAGGUAG (SEQ ID NO 2) (listed as RNA, chemistry not given here) | – | – | suppressed | suppressed | returned to baseline levels | suppressed luciferase expression significantly | – | – | – | – | – | – | – | – | – | – |
| miRNA20a: microRNA, RNA sequence UAAAGUGCUUAUAGUGCAGGUAG (SEQ ID NO 3) (listed as RNA, chemistry not given here) | – | – | suppressed | suppressed | returned to baseline levels | lowered luciferase expression | – | – | – | – | – | – | – | – | – | – |
| miRNA93: microRNA, RNA sequence CAAAGUGCUGUUCGUGCAGGUAG (SEQ ID NO 4) (listed as RNA, chemistry not given here) | – | – | suppressed | suppressed | returned to baseline levels | lowered luciferase expression | ~50 | – | – | – | – | – | – | – | – | – |
| miRNA106a: microRNA, RNA sequence AAAAGUGCUUACAGUGCAGGUAG (SEQ ID NO 1) (chemistry not given here) | – | – | suppressed | suppressed | returned to baseline levels | suppressed luciferase expression significantly | ~80 | did not appear to grow in size | targets the 3′UTRs of both CaMKIIδ and HDAC4 | targets the 3′UTRs of both CaMKIIδ and HDAC4 | no change in luciferase expression | HDAC4 re-entry into the nucleus | no significant difference in red:green ratios | reversal of IL-1ß expression back to normal, untreated levels | very similar results as IL-1β | very similar results as IL-1β |
